pEC50: −log10 of the molar value.
Key:
[1] = test system: Respiratory Syncytial Virus; assay: In vitro screening for activity against Respiratory Syncytial Virus (tetrazolium-based colorimetric assay, HeLa cells); assay type: cell-based; conditions: human respiratory syncytial virus, 168 h; protection against cytopathology caused by RSV in HeLa cells, MTT readout seven days after infection
Excerpt: The percent protection against cytopathology caused by viruses (antiviral activity or EC50) achieved by tested compounds and their cytotoxicity (CC50) are both calculated from dose-response curves. The selectivity of the antiviral effect is represented by the selectivity index (SI), calculated by dividing the CC50 (cytotoxic dose for 50% of the cells) by the EC50 (antiviral activity for 50% of the cells).
Automated tetrazolium-based colorimetric assays were used for determination of EC50 and CC50 of test compounds. Flat-bottom, 96-well plastic microtiter trays were filled with 180 μl of Eagle's Basal Medium, supplemented with 5% FCS (0% for FLU) and 20 mM Hepes buffer. Subsequently, stock solutions (7.8× final test concentration) of compounds were added in 45 μl volumes to a series of triplicate wells so as to allow simultaneous evaluation of their effects on virus- and mock-infected cells. Five five-fold dilutions were made directly in the microtiter trays using a robot system. Untreated virus controls, and HeLa cell controls were included in each test. Approximately 100 TCID50 of Respiratory Syncytial Virus was added to two of the three rows in a volume of 50 μl. The same volume of medium was added to the third row to measure the cytotoxicity of the compounds at the same concentrations as those used to measure the antiviral activity. After two hours of incubation, a suspension (4×10^5 cells/ml) of HeLa cells was added to all wells in a volume of 50 μl. The cultures were incubated at 37° C. in a 5% CO2 atmosphere. Seven days after infection the cytotoxicity and the antiviral activity was examined spectrophotometrically. To each well of the microtiter tray, 25 μl of a solution of MTT (3-(4,5-dimethylthiazol-2-yl)-2,5-diphenyltetrazolium bromide) was added. The trays were further incubated at 37° C. for 2 hours, after which the medium was removed from each cup. Solubilization of the formazan crystals was achieved by adding 100 μl 2-propanol. Complete dissolution of the formazan crystals were obtained after the trays have been placed on a plate shaker for 10 min. Finally, the absorbances were read in an eight-channel computer-controlled photometer (Multiskan MCC, Flow Laboratories) at two wavelengths (540 and 690 nm). The absorbance measured at 690 nm was automatically subtracted from the absorbance at 540 nm, so as to eliminate the effects of non-specific absorption.

Row | pEC50 [1] | melting point [°C] | SMILES
1 | 7.50 |  | Cc1ccc(O)c(Cn2c(NCCCN3CCOCC3)nc3ccc(CNc4cccnc4CCO)cc32)n1 [c-3]
2 | 6.70 |  | OCCc1ncccc1NCc1ccc2nc(NCCCN3CCOCC3)n(Cc3ncccc3O)c2c1 [e-1]
3 | 7.30 | 207 | Cc1ccc(O)c(Cn2c(NCCCN3CCOCC3)nc3ccc(CNc4cnccc4CCO)cc32)n1 [g-3]
4 | 6.35 | 142 | OCCc1ccncc1NCc1ccc2nc(NCCCN3CCOCC3)n(Cc3ncccc3O)c2c1 [h-3]

— patent publication US8178694B2, “Heterocyclylaminoalkyl substituted benzimidazoles” (Tibotec Pharmaceuticals Ltd., priority 2005, dated 2012)
